Test results taken from ChEMBL document CHEMBL4665809, “Synthesis and biofilm inhibition studies of 2-(2-amino-6-arylpyrimidin-4-yl)quinazolin-4(3H)-ones” (Bioorg Med Chem Lett, 2020).

Key:
Acinetobacter baumannii = experiment: Inhibition of biofilm formation in Acinetobacter baumannii at 100 uM incubated for 24 hrs by crystal violet staining based microtiter plate method; type: functional
Staphylococcus aureus [1] = experiment: Inhibition of biofilm formation in methicillin-resistant Staphylococcus aureus ATCC 43300 at 100 uM incubated for 24 hrs by crystal violet staining based microtiter plate method; type: functional
Staphylococcus aureus [2] = experiment: Inhibition of biofilm formation in methicillin-resistant Staphylococcus aureus ATCC 43300 incubated for 24 hrs by crystal violet staining based microtiter plate method; type: functional, organism-based; details: ATCC 43300, 24 h
CCD-18Co [3] = experiment: Cytotoxicity against human CCD-18Co cells assessed as reduction in cell viability at 12.5 uM measured after 1 days by MTT assay relative to control; type: cell-based; details: 24 h, time 1 day
CCD-18Co [4] = experiment: Cytotoxicity against human CCD-18Co cells assessed as reduction in cell viability at 50 uM measured after 1 days by MTT assay relative to control; type: cell-based; details: 24 h, time 1 day
CCD-18Co [5] = experiment: Cytotoxicity against human CCD-18Co cells assessed as reduction in cell viability at 25 uM measured after 1 days by MTT assay relative to control; type: cell-based; details: 24 h, time 1 day

| SMILES | inhibition at 100 µM (Acinetobacter baumannii) [%] | inhibition at 100 µM (Staphylococcus aureus [1]) [%] | IC50 (Staphylococcus aureus [2]) [µM] | Activity (CCD-18Co [3]) | Activity (CCD-18Co [4]) | Activity (CCD-18Co [5]) |
| --- | --- | --- | --- | --- | --- | --- |
| Cc1ccc(-c2cc(-c3nc4ccccc4c(=O)[nH]3)nc(N)n2)cc1 | < 25 |  |  |  |  |  |
| Nc1nc(-c2nc3ccccc3c(=O)[nH]2)cc(-c2ccccc2Cl)n1 | < 25 | > 50 | 56.2 |  |  |  |
| Nc1nc(-c2nc3ccccc3c(=O)[nH]2)cc(-c2ccco2)n1 | < 25 | > 50 | 56.9 |  |  |  |
| Nc1nc(-c2ccc(OCc3ccccc3)cc2)cc(-c2nc3ccccc3c(=O)[nH]2)n1 | < 25 | > 50 | 37.3 |  |  |  |
| COc1ccc(-c2cc(-c3nc4ccccc4c(=O)[nH]3)nc(N)n2)c(OC)c1 | < 25 | > 50 | 38.4 |  |  |  |
| COc1cccc(-c2cc(-c3nc4ccccc4c(=O)[nH]3)nc(N)n2)c1 | < 25 | > 50 | 84.8 |  |  |  |
| COc1cc(-c2cc(-c3nc4ccccc4c(=O)[nH]3)nc(N)n2)cc(OC)c1OC | < 25 |  |  |  |  |  |
| Nc1nc(-c2cccc(Br)c2)cc(-c2nc3ccccc3c(=O)[nH]2)n1 | < 25 | > 50 | 20.7 | Toxic | Toxic |  |
| COc1ccc(-c2cc(-c3nc4ccccc4c(=O)[nH]3)nc(N)n2)cc1OC | < 25 |  |  |  |  |  |
| Nc1nc(-c2ccc(F)cc2)cc(-c2nc3ccccc3c(=O)[nH]2)n1 | < 25 | < 50 |  |  |  |  |
| Nc1nc(-c2ccccc2)cc(-c2nc3ccccc3c(=O)[nH]2)n1 | < 25 | > 50 | 34.4 |  |  |  |
| COc1cc(OC)cc(-c2cc(-c3nc4ccccc4c(=O)[nH]3)nc(N)n2)c1 | < 25 | > 50 | 50.5 |  |  |  |
| Nc1nc(-c2nc3ccccc3c(=O)[nH]2)cc(-c2ccc(Cl)cc2Cl)n1 | < 25 | > 50 | 42.7 |  |  |  |
| CSc1ccc(-c2cc(-c3nc4ccccc4c(=O)[nH]3)nc(N)n2)cc1 | < 25 | > 50 | 22.4 |  |  |  |
| Nc1nc(-c2nc3ccccc3c(=O)[nH]2)cc(-c2cccc3ccccc23)n1 | < 25 |  |  |  |  |  |
| COc1cc(OC)c(-c2cc(-c3nc4ccccc4c(=O)[nH]3)nc(N)n2)c(OC)c1 | < 25 | > 50 | 21.2 | Non-Toxic | Non-Toxic | Non-Toxic |
| Nc1nc(-c2ccc(Br)cc2)cc(-c2nc3ccccc3c(=O)[nH]2)n1 | < 25 | > 50 | 47.3 |  |  |  |
| Nc1nc(-c2nc3ccccc3c(=O)[nH]2)cc(-c2cccs2)n1 | < 25 | < 50 | 71 |  |  |  |
| Nc1nc(-c2ccncc2)cc(-c2nc3ccccc3c(=O)[nH]2)n1 | < 25 | < 50 |  |  |  |  |
| Nc1nc(-c2ccc(C(F)(F)F)cc2)cc(-c2nc3ccccc3c(=O)[nH]2)n1 | < 25 | > 50 | 86.5 |  |  |  |
| Nc1nc(-c2ccc(Cl)cc2)cc(-c2nc3ccccc3c(=O)[nH]2)n1 | < 25 | < 50 |  |  |  |  |
| Nc1nc(-c2cccc(OCc3ccccc3)c2)cc(-c2nc3ccccc3c(=O)[nH]2)n1 | < 25 |  |  |  |  |  |
